Experimental data reported in patent US12258328B2, “6-membered heteroaryl-containing aminopyridine compounds as EGFR inhibitors” (YUHAN CORPORATION, priority 2021, dated 2025).
Read-outs that look alike come from different tables or passages of the source. Values belong to the molecule of their own block, whether it stands above or below them.

How the values were obtained:
[1] = target: EGFR L858R/T790M/C797S (Homo sapiens, UniProt P00533, C797S/L858R/T790M); assay: Biochemical EGFR kinase assay (Lance Ultra TR-FRET), triple mutant L858R/T790M/C797S
Chain of EGFR L858R/T790M/C797S (P00533 25-1210 T790M/C797S/L858R): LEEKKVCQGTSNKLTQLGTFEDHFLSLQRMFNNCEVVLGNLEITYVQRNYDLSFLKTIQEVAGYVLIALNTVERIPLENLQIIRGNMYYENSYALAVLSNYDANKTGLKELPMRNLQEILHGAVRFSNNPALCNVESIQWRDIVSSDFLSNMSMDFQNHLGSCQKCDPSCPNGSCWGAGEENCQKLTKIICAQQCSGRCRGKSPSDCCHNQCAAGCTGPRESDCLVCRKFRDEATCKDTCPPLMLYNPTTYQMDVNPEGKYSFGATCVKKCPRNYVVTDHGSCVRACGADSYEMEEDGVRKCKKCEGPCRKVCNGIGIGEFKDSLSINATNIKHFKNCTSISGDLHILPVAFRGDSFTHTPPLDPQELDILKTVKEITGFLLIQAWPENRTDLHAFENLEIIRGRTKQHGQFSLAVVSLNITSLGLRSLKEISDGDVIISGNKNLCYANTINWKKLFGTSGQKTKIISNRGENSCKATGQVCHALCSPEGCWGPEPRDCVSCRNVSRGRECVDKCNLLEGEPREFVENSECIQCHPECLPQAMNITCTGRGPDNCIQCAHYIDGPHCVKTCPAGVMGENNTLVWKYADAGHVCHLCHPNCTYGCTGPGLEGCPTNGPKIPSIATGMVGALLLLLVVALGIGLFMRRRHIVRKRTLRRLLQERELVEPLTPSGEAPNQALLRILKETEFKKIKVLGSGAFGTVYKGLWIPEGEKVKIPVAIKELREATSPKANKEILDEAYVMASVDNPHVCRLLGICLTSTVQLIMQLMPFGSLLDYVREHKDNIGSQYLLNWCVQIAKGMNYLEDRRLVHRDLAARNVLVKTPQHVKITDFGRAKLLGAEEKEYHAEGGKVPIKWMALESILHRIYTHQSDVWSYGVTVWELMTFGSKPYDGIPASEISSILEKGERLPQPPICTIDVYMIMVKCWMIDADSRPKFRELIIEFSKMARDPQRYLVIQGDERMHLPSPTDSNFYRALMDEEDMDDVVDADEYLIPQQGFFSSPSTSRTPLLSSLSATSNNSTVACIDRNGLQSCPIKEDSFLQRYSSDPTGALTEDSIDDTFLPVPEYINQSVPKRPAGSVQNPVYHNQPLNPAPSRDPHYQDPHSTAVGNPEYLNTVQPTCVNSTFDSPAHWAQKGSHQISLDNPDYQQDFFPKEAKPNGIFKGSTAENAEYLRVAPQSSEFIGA
Method: (§1) Biochemical EGFR kinase assays were conducted using Lance Ultra time-resolved fluorescence resonance energy transfer (TR-FRET) technology from Perkin-Elmer. Compounds of the invention were initially diluted to 20 mM in 100% DMSO for storage and made into kinase buffer solution to create a compound concentration ranging from 0.003 μM and 10 μM.
(§2) Each kinase reactions were incubated at room temperature for 1 hour and then stopped by the addition of 4 μL of stop solution (10 mM EDTA). The specific Europium-labeled-anti-phosphopeptide antibody (PerkinElmer, AD0069) diluted in LANCE detection buffer was then added to a final concentration of 2 nM. After 60 minutes incubation at room temperature the LANCE signal was measured on an EnVision Multilabel Reader (Perkin-Elmer). Excitation wavelength was set at 320 nm and emission monitored at 615 nm (donor) and 665 nm (acceptor). The IC50 values were determined using GraphPad prism software (GraphPad Software, Inc., San Diego, CA, USA).

[2] = target: EGFR wildtype (Homo sapiens, UniProt P00533); assay: Biochemical EGFR kinase assay (Lance Ultra TR-FRET), wildtype
Method: as §1, §2

[3] = target: EGFR del19/T790M/C797S (Homo sapiens, UniProt P00533, C797S/DEL746-750/T790M); assay: Biochemical EGFR kinase assay (Lance Ultra TR-FRET), triple mutant del19/T790M/C797S
Chain of EGFR del19/T790M/C797S (P00533 with tags, fused parts or gaps DEL746-750/T790M/C797S): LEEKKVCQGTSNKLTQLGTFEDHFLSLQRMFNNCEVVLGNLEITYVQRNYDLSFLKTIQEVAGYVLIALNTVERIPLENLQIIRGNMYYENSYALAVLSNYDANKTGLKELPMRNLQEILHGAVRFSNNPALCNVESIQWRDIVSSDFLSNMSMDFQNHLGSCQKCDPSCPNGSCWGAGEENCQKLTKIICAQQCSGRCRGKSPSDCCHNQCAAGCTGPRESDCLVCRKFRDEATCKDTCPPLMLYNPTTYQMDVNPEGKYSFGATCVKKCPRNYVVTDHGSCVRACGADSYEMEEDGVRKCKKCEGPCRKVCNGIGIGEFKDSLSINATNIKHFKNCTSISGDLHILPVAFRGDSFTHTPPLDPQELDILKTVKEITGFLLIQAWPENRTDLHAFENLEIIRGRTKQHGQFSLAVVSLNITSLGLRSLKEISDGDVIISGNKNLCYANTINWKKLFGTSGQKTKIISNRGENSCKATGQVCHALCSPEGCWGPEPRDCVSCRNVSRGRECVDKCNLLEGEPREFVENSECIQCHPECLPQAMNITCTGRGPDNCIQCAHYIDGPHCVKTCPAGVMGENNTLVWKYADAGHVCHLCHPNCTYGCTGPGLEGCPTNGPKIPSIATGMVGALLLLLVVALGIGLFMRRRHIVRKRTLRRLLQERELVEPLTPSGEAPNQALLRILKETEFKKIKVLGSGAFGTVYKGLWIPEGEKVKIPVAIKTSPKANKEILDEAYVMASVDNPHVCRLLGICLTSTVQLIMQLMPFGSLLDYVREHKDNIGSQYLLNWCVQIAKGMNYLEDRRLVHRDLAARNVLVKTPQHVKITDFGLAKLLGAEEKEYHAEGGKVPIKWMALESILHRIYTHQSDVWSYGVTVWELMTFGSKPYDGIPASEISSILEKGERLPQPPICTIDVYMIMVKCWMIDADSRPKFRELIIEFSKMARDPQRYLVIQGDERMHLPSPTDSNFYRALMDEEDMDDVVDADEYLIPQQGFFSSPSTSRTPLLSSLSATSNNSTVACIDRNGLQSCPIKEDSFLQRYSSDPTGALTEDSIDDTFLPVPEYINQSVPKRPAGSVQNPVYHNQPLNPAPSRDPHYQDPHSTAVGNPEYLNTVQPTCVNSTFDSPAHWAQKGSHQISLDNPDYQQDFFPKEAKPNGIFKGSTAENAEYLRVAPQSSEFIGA
Method: as §1, §2

[4] = target: EGFR del19/C797S (Homo sapiens, UniProt P00533, C797S/DEL746-750); assay: Biochemical EGFR kinase assay (Lance Ultra TR-FRET), double mutant del19/C797S
Chain of EGFR del19/C797S (P00533 with tags, fused parts or gaps DEL746-750/C797S): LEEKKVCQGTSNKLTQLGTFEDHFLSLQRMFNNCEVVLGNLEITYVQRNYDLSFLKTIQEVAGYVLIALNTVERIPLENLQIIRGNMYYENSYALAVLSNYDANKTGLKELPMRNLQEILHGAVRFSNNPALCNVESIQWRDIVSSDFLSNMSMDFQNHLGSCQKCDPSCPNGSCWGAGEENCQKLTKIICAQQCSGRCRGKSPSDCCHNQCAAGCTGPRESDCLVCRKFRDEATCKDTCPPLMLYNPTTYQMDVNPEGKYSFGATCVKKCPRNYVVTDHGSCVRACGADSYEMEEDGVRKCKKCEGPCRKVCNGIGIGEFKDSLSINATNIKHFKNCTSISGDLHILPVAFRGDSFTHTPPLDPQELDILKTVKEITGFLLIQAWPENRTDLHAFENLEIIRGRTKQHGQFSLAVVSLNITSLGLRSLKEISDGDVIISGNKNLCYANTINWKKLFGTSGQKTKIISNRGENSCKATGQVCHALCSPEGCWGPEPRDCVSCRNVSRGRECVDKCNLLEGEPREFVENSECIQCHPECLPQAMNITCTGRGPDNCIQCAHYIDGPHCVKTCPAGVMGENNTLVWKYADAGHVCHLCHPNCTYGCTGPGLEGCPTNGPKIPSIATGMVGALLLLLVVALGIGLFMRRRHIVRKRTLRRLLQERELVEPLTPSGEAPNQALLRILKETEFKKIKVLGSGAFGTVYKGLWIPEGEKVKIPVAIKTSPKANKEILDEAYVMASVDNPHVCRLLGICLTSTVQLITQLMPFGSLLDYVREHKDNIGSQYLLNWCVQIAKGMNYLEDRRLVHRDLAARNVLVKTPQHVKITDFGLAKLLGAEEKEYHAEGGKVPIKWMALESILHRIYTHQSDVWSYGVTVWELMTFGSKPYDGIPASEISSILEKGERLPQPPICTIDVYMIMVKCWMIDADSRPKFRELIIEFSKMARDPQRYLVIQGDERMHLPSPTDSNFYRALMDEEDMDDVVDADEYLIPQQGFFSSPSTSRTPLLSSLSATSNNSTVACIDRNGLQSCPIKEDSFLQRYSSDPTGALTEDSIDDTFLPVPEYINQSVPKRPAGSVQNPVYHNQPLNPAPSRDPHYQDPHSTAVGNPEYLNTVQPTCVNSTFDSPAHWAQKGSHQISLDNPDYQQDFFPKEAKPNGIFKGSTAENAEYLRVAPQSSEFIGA
Method: as §1, §2

[5] = target: EGFR L858R/C797S (Homo sapiens, UniProt P00533, C797S/L858R); assay: Biochemical EGFR kinase assay (Lance Ultra TR-FRET), double mutant L858R/C797S
Chain of EGFR L858R/C797S (P00533 25-1210 C797S/L858R): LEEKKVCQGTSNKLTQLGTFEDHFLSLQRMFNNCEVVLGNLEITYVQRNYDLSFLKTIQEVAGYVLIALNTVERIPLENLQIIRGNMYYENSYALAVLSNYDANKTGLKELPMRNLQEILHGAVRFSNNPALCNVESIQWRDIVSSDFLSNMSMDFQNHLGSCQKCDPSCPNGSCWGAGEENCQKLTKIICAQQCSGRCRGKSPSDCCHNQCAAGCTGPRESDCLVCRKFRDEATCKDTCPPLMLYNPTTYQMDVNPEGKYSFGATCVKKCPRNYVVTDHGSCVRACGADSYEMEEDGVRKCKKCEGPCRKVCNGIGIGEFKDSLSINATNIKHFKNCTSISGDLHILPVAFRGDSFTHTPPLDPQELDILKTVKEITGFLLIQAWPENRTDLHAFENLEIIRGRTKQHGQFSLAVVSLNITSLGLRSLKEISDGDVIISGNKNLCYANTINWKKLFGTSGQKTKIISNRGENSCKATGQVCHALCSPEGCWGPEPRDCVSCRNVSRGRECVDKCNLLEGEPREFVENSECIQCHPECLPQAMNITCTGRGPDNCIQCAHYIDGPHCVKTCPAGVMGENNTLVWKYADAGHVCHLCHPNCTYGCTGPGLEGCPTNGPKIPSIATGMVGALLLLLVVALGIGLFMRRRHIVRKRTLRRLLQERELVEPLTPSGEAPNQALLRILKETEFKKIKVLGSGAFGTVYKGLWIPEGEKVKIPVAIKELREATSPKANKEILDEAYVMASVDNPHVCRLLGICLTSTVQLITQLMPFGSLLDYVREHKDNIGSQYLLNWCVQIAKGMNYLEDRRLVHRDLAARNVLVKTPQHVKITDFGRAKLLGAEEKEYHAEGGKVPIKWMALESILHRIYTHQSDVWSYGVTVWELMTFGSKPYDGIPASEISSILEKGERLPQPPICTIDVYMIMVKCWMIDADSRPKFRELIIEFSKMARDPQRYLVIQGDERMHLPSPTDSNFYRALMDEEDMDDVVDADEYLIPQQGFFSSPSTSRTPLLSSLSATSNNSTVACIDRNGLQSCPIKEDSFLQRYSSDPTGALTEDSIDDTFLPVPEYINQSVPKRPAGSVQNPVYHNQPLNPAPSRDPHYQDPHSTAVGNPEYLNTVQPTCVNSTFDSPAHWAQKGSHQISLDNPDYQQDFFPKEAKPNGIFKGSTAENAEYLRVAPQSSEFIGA
Method: as §1, §2

[6] = IC50 L858R/T790M/C797S (nM) 100 μM ATP, 100 μM ATP
[7] = Km ATP, read-out: IC50 L858R/T790M/C797S (nM) Km ATP
[8] = IC50 WT (nM) 100 μM ATP, 100 μM ATP
[9] = Km ATP, read-out: IC50 WT (nM) Km ATP
[10] = IC50 del19/T790M/C797S (nM) 100 μM ATP, 100 μM ATP
[11] = Km ATP, read-out: IC50 del19/T790M/C797S (nM) Km ATP
[12] = IC50 del19/C797S (nM) 100 μM ATP, 100 μM ATP
[13] = Km ATP, read-out: IC50 del19/C797S (nM) Km ATP
[14] = IC50 L858R/C797S (nM) 100 μM ATP, 100 μM ATP
[15] = Km ATP, read-out: IC50 L858R/C797S (nM) Km ATP
[16] = IC50 L858R/T790M/C797S, 100 μM ATP
[17] = ATP at Km, read-out: IC50 WT, Km ATP
[18] = ATP at Km, read-out: IC50 del19/T790M/C797S, Km ATP
[19] = IC50 del19/T790M/C797S, 100 μM ATP
[20] = ATP at Km, read-out: IC50 del19/C797S, Km ATP
[21] = ATP at Km, read-out: IC50 L858R/C797S, Km ATP
[22] = ATP at Km, read-out: IC50 L858R/T790M/C797S, Km ATP

Compound: O=S(=O)(C1CC1)n1cc(-c2nccc(Nc3cc(N[C@H]4CC[C@](O)(CO)CC4)c(-c4ccccn4)cn3)n2)cn1 [Example 37, (1s,4s)-4-((6′-((2-(1-(Cyclopropylsulfonyl)-1H-pyrazol-4-yl)pyrimidin-4-yl)amino)-[2,3′-bipyridin]-4′-yl)amino)-1-(hydroxymethyl)cyclohexan-1-ol]
- IC50 [1, 6]: 0.3 nM
- IC50 [1, 7]: 0.1 nM
- IC50 [2, 8]: > 10000 nM
- IC50 [2, 9]: 6.6 nM
- IC50 [3, 10]: 0.2 nM
- IC50 [3, 11]: 0.2 nM
- IC50 [4, 12]: 1.1 nM
- IC50 [4, 13]: 0.7 nM
- IC50 [5, 14]: 21.3 nM
- IC50 [5, 15]: 0.7 nM

Compound: O=S(=O)(C1CC1)n1cc(-c2nccc(Nc3cc(N[C@H]4CC[C@@H](CO)CC4)c(-c4cccc(F)n4)cn3)n2)cn1 [Example 272, ((1s,4s)-4-((6′-((2-(1-(Cyclopropylsulfonyl)-1H-pyrazol-4-yl)pyrimidin-4-yl)amino)-6-fluoro-[2,3′-bipyridin]-4′-yl)amino)cyclohexyl)methanol]
- IC50 [1, 22]: 0.1 nM
- IC50 [1, 16]: 0.3 nM
- IC50 [2, 17]: 1.4 nM
- IC50 ([2]; IC50 WT, 100 μM ATP): 495 nM
- IC50 [3, 18]: 0.3 nM
- IC50 [3, 19]: 0.5 nM
- IC50 [4, 20]: 0.6 nM
- IC50 ([4]; IC50 del19/C797S, 100 μM ATP): 0.7 nM
- IC50 [5, 21]: 1 nM
- IC50 ([5]; IC50 L858R/C797S, 100 μM ATP): 2.5 nM

Compound: CN(C)C[C@H]1CC[C@@H](Nc2cc(Nc3ccnc(-c4cnn(S(=O)(=O)C5CC5)c4)n3)ncc2-c2cnc(OC(F)F)cn2)CC1 [Example 131, N^2-(2-(1-(Cyclopropylsulfonyl)-1H-pyrazol-4-yl)pyrimidin-4-yl)-5-(5-(difluoromethoxy)pyrazin-2-yl)-N^4-((1s,4s)-4-((dimethylamino)methyl)cyclohexyl)pyridine-2,4-diamine]
- IC50 [1, 7]: 0.1 nM
- IC50 [2, 9]: 8.1 nM
- IC50 [3, 11]: 0.2 nM
- IC50 [4, 13]: 2.1 nM
- IC50 [5, 15]: 2.2 nM

More lines, now with the values ahead:

- IC50 [1, 16]: 0.2 nM
- IC50 [2, 17]: 7.8 nM
- IC50 ([2]; IC50 WT, 100 μM ATP): 6310 nM
- IC50 [3, 18]: 0.1 nM
- IC50 [3, 19]: 0.2 nM
- IC50 [4, 20]: 0.4 nM
- IC50 ([4]; IC50 del19/C797S, 100 μM ATP): 0.9 nM
- IC50 [5, 21]: 0.5 nM
- IC50 ([5]; IC50 L858R/C797S, 100 μM ATP): 14.1 nM
Compound: C[C@]1(O)CC[C@@H](Nc2cc(Nc3ccnc(-c4cnn(S(=O)(=O)C5CC5)c4)n3)ncc2-c2cccc(NCCO)n2)CC1 [Example 285, (1s,4s)-4-((6′-((2-(1-(Cyclopropylsulfonyl)-1H-pyrazol-4-yl)pyrimidin-4-yl)amino)-6-((2-hydroxyethyl)amino)-[2,3′-bipyridin]-4′-yl)amino)-1-methylcyclohexan-1-ol]

- IC50 [1, 22]: 0.4 nM
- IC50 [2, 17]: 4.1 nM
- IC50 ([2]; IC50 WT, 100 μM ATP): > 10000 nM
- IC50 [3, 18]: 0.9 nM
- IC50 [4, 20]: 0.6 nM
- IC50 ([4]; IC50 del19/C797S, 100 μM ATP): 2.8 nM
- IC50 ([5]; IC50 L858R/C797S, 100 μM ATP): 3.6 nM
Compound: Cc1ccc(-c2cnc(Nc3ccnc(-c4cnn(S(=O)(=O)C5CC5)c4)n3)cc2N[C@H]2CC[C@@](C)(O)CC2)nc1F [Example 179, (1s,4s)-4-((6′-((2-(1-(Cyclopropylsulfonyl)-1H-pyrazol-4-yl)pyrimidin-4-yl)amino)-6-fluoro-5-methyl-[2,3′-bipyridin]-4′-yl)amino)-1-methylcyclohexan-1-ol]

- IC50 [1, 7]: 1.2 nM
- IC50 [2, 9]: 45.7 nM
- IC50 [3, 11]: 2.7 nM
- IC50 [4, 13]: 12.1 nM
- IC50 [5, 15]: 12.6 nM
Compound: O=S(=O)(C1CC1)n1cc(-c2nccc(Nc3cc(N[C@H]4CC[C@@H](F)CC4)c(-c4ccc(CN5CCOCC5)cn4)cn3)n2)cn1 [Example 126, N^6′-(2-(1-(Cyclopropylsulfonyl)-1H-pyrazol-4-yl)pyrimidin-4-yl)-N^4′-((1s,4s)-4-fluorocyclohexyl)-5-(morpholinomethyl)-[2,3′-bipyridine]-4′,6′-diamine]

- IC50 [1, 6]: 0.2 nM
- IC50 [1, 7]: 0.1 nM
- IC50 [2, 8]: 8890 nM
- IC50 [2, 9]: 1 nM
- IC50 [3, 10]: 0.2 nM
- IC50 [3, 11]: 0.4 nM
- IC50 [4, 12]: 0.7 nM
- IC50 [4, 13]: 0.4 nM
- IC50 [5, 14]: 6.3 nM
- IC50 [5, 15]: 0.4 nM
Compound: Cc1ccc(-c2cnc(Nc3ccnc(-c4cnn(S(=O)(=O)C5CC5)c4)n3)cc2N[C@H]2CC[C@@](C)(O)CC2)nc1 [Example 8, (1s,4s)-4-((6′-((2-(1-(Cyclopropylsulfonyl)-1H-pyrazol-4-yl)pyrimidin-4-yl)amino)-5-methyl-[2,3′-bipyridin]-4′-yl)amino)-1-methylcyclohexan-1-ol]
